Source: PubChem BioAssay AID298 (DTP/NCI, 2004)
Where “and” joins values, the source holds several entries; their conditions need not be identical. Equal entries are not always repeated. Inconclusive results are not listed.

Test system: MX-1 breast xenograft, intrarenal, nude mice, tumor weight
Test: NCI In Vivo Anticancer Drug Screen. Data for tumor model Human Mammary Carcinoma MX-1 Xenograft (intrarenal inoculation) in NU/NU BALB/C (nude) mice
Details: endpoint: mean tumor weight change, higher = larger tumour
Procedure, shortened: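 Antitumor activity is expressed as a T/C ratio. The treated group's tumor size or survival is compared against the vehicle-treated control group in mice bearing transplanted tumors.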

[1] = dose: 37.5 mg/kg/injection, schedule: Q04DX003 (ip), vehicle: Klucel (hydroxypropylcellulose) (HPC)
[2] = dose: 75.0 mg/kg/injection, schedule: Q04DX003 (ip), vehicle: Klucel (hydroxypropylcellulose) (HPC)
[3] = dose: 200.0 mg/kg/injection, schedule: Q04DX003 (sc), vehicle: saline with Tween-80

Structure (SMILES): CCC1(O)C(=O)OCc2c1cc1n(c2=O)Cc2cc3cc4c(cc3nc2-1)OCO4 (centres undefined)
- T/C (dose: 4.0 mg/kg/injection, schedule: Q04DX003 (ip), vehicle: saline with Tween-80): -100 % of control

Structure (SMILES): O=NN(CCCl)C(=O)NCCCl
- T/C (dose: 12.0 mg/kg/injection, schedule: Q04DX003 (ip), vehicle: saline + alcohol): 60 % of control and 74 % of control
- T/C (dose: 15.0 mg/kg/injection, schedule: Q04DX003 (sc), vehicle: Klucel (hydroxypropylcellulose) (HPC)): 30 % of control
- T/C (dose: 18.0 mg/kg/injection, schedule: Q04DX003 (ip), vehicle: saline + alcohol): 27 % of control and 49 % of control
- T/C (dose: 30.0 mg/kg/injection, schedule: Q04DX003 (sc), vehicle: Klucel (hydroxypropylcellulose) (HPC)): 1 % of control

Structure (SMILES): Nc1nc([Se]c2nc(N)nc3c2ncn3C2OC(CO)C(O)C2O)c2ncn(C3OC(CO)C(O)C3O)c2n1 (centres undefined)
- T/C (dose: 100.0 mg/kg/injection, schedule: Q04DX003 (ip), vehicle: distilled water + Tween-80): 77 % of control
- T/C (dose: 200.0 mg/kg/injection, schedule: Q04DX003 (ip), vehicle: distilled water + Tween-80): 78 % of control
- T/C (dose: 400.0 mg/kg/injection, schedule: Q04DX003 (ip), vehicle: distilled water + Tween-80): 34 % of control

Structure (SMILES): COc1cc2c(cc1OC)[C@@H]1C(=O)c3ccc4c(c3O[C@@H]1CO2)C[C@H](C(C)C)O4
- T/C [1]: 78 % of control
- T/C [2]: 55 % of control
- T/C (dose: 150.0 mg/kg/injection, schedule: Q04DX003 (ip), vehicle: Klucel (hydroxypropylcellulose) (HPC)): 57 % of control

Structure (SMILES): CN(CO)c1nc(N(C)CO)nc(N(C)CO)n1
- T/C (dose: 6.25 mg/kg/injection, schedule: Q01DX010 (sc), vehicle: saline): 86 % of control
- T/C (dose: 12.5 mg/kg/injection, schedule: Q01DX010 (sc), vehicle: saline): 30 % of control
- T/C (dose: 25.0 mg/kg/injection, schedule: Q01DX010 (sc), vehicle: saline): 2 % of control
- T/C (dose: 100.0 mg/kg/injection, schedule: Q01DX010 (sc), vehicle: saline): 1 % of control

Structure (SMILES): NC(Cc1ccc(N(CCCl)CCCl)cc1)C(=O)O (centres undefined)
- T/C (dose: 10.0 mg/kg/injection, schedule: Q04DX003 (sc), vehicle: Klucel (hydroxypropylcellulose) (HPC)): -85 % of control and -98 % of control
- T/C (dose: 20.0 mg/kg/injection, schedule: Q04DX003 (sc), vehicle: Klucel (hydroxypropylcellulose) (HPC)): -90 % of control

Structure (SMILES): Cc1cc(=NO)cc(C)n1O
- T/C (dose: 300.0 mg/kg/injection, schedule: Q04DX003 (sc), vehicle: distilled water + alcohol): 116 % of control
- T/C (dose: 1200.0 mg/kg/injection, schedule: Q04DX003 (sc), vehicle: distilled water + alcohol): 90 % of control
- T/C (dose: 2400.0 mg/kg/injection, schedule: Q04DX003 (sc), vehicle: distilled water + alcohol): 89 % of control

Structure (SMILES): CCOC(=O)Nc1cc(NC(C)/C(=N/O)c2ccccc2)c([N+](=O)[O-])c(N)n1 (centres undefined)
- T/C (dose: 18.75 mg/kg/injection, schedule: Q04DX003 (ip), vehicle: Klucel (hydroxypropylcellulose) (HPC)): 84 % of control
- T/C [1]: 60 % of control
- T/C [2]: 72 % of control

Structure (SMILES): COc1cc2c[n+](C)c3c4cc5c(cc4ccc3c2cc1OC)OCO5
- T/C (dose: 25.0 mg/kg/injection, schedule: Q04DX003 (sc), vehicle: saline with Tween-80): 94 % of control
- T/C (dose: 50.0 mg/kg/injection, schedule: Q04DX003 (sc), vehicle: saline with Tween-80): 116 % of control
- T/C (dose: 100.0 mg/kg/injection, schedule: Q04DX003 (sc), vehicle: saline with Tween-80): 111 % of control
- T/C [3]: 108 % of control

Structure (SMILES): Cc1ccc(S(=O)(=O)NC(=O)OC23COCN2COC3)cc1
- T/C [3]: 123 % of control
- T/C (dose: 800.0 mg/kg/injection, schedule: Q04DX003 (sc), vehicle: saline with Tween-80): 102 % of control
- T/C (dose: 1600.0 mg/kg/injection, schedule: Q04DX003 (sc), vehicle: saline with Tween-80): 107 % of control

Structure (SMILES): O=NNc1ccccn1
- T/C (dose: 4.0 mg/kg/injection, schedule: Q01DX010 (sc), vehicle: saline): 124 % of control
- T/C (dose: 16.0 mg/kg/injection, schedule: Q01DX010 (sc), vehicle: saline): 80 % of control
- T/C (dose: 32.0 mg/kg/injection, schedule: Q01DX010 (sc), vehicle: saline): 14 % of control

Structure (SMILES): O=C1CCC(=O)N1CO
- T/C (dose: 300.0 mg/kg/injection, schedule: Q04DX003 (sc), vehicle: saline): 73 % of control
- T/C (dose: 600.0 mg/kg/injection, schedule: Q04DX003 (sc), vehicle: saline): 86 % of control

Structure (SMILES): NCCCN=c1ccc2c3c1c(O)c1c(O)ccc(=O)c1c3[nH]n2CCNCCO
- T/C (dose: 9.35 mg/kg/injection, schedule: Q04DX003 (ip), vehicle: water): 19 % of control
- T/C (dose: 9.38 mg/kg/injection, schedule: Q04DX003 (ip), vehicle: water): 11 % of control
- T/C (dose: 18.75 mg/kg/injection, schedule: Q04DX003 (ip), vehicle: water): -33 % of control and -19 % of control and -16 % of control
- T/C (dose: 37.5 mg/kg/injection, schedule: Q04DX003 (ip), vehicle: water): -87 % of control and -83 % of control and -100 % of control
